Data published in US10947182B1, “Cinnamyl alcohol cassic acid ester with antibacterial activity and a method of preparing the same” (SHAANXI UNIVERSITY OF SCIENCE AND TECHNOLOGY, priority 2020, dated 2021).

Tests used:
[1] = test system: multi-resistant Staphylococcus aureus 18-206; experiment: paper diffusion method drug sensitivity test; format: cell-based; conditions: for Zone of inhibition: Multi-resistant Staphylococcus aureus 18-206, 30 μg/tablet paper disc (6.35 mm), LB plate, 37° C., 24 h; for inhibitory effect on drug-resistant bacteria (in words): multi-resistant Staphylococcus aureus 18-206, summary of Table 1
Experimental: (§1) The antimicrobial efficacy was determined by a paper diffusion method drug sensitivity test.
(§2) Experimental strains: Staphylococcus aureus (SAU), multi-resistant Staphylococcus aureus 18-206. The experimental strain was identified by Huashan Hospital Affiliated to Fudan University (Institute of Antibiotic of Fudan University).
(§3) Drug sensitive paper: The drug sensitive paper is a special drug sensitive paper with a diameter of 6.35 mm and a water absorption of 0.02 mL. The control drug was cefazolin (30 μg/tablet); the test drugs were cassic acid (30 μg/tablet), cinnamyl alcohol (30 μg/tablet) and cinnamyl alcohol cassic acid ester (30 μg/tablet).
(§4) Reagents: LB agar medium, LA broth medium, 0.5% DMSO solution.
(§5) The experimental strains were inoculated in non-selective medium and placed in air at 37° C. for 24 h. Pick a single colony that grows well and inoculate it into broth medium, incubate at 35° C.±2° C. for 6 hours, and use LA broth medium to calibrate the concentration of the bacterial solution to 0.5 Mie turbidimetric tube (1.5×10^8 CFU/mL). A bacterial suspension is obtained.
(§6) Weigh the LB dry powder, sterilize at 103.4 Kpa, 121.3° C. high-pressure steam for 15 min, and then put it in a 40° C.-50° C. water bath. Place a sterile empty plate (inner diameter 9 cm) on the surface of the ultra-clean table water table, shake and shake LB, and then pour the plate. The thickness of each plate is 3 mm to 4 mm. After the plate is cooled at room temperature, store it in the refrigerator at 2° C.-8° C. Use a sterile cotton swab to dip the bacterial solution, and evenly coat the surface of the LB plate 3 times. After inoculation of the bacterial suspension, the LB plate was dried at room temperature for 3 min to 5 min. Use sterile forceps to closely attach the antibacterial drug paper to the dish. Put the dish upside down and place it in a 37° C. incubator for 24 h. Observe the result and measure the diameter. Taking 0.5% DMSO solution as a negative control, the antibacterial activity is expressed by the diameter of the inhibition zone. The inhibition zone ≥17 mm, sensitive; the inhibition zone is 15 mm-16 mm, intermediary; the inhibition zone ≤14 mm, drug resistance.

[2] = test system: Staphylococcus aureus (SAU); experiment: paper diffusion method drug sensitivity test; format: cell-based; conditions: 30 μg/tablet paper disc (6.35 mm), LB plate, 37° C., 24 h
Experimental: as §1, §2, §3, §4, §5, §6

Compound: O=C(O)c1cc(O)c2c(c1)C(=O)c1cccc(O)c1C2=O [Cassic acid]
- Zone of inhibition [1]: 7 mm
- Zone of inhibition [2]: 7 mm

Compound: Cc1nnc(SCC2=C(C(=O)O)N3C(=O)[C@@H](NC(=O)Cn4cnnn4)[C@H]3SC2)s1 [Cefazolin]
- Zone of inhibition [1]: 22 mm
- Zone of inhibition [2]: 34 mm

Compound: OCC=Cc1ccccc1 [Cinnamyl alcohol]
- Zone of inhibition [1]: 0 mm
- inhibitory effect on drug-resistant bacteria (in words) [1]: no inhibitory effect
- Zone of inhibition [2]: 17 mm

Compound: O=C(OC/C=C/c1ccccc1)c1cc(O)c2c(c1)C(=O)c1cccc(O)c1C2=O [Cinnamyl alcohol cassic acid ester, Cinnamyl 4,5-dihydroxy-9,10-dioxo-9,10-dihydroanthracene-2-carboxylate]
- Zone of inhibition [1]: 15 mm
- inhibitory effect on drug-resistant bacteria (in words) [1]: strong suppression effect
- Zone of inhibition [2]: 13 mm
